Source: BindingDB's records for doi:10.1021/jm400664x (Washington University, 2013)

Molecular target: T1, Vesicular acetylcholine transporter (Homo sapiens, UniProt Q16572)
T1 sequence (Q16572 whole entry): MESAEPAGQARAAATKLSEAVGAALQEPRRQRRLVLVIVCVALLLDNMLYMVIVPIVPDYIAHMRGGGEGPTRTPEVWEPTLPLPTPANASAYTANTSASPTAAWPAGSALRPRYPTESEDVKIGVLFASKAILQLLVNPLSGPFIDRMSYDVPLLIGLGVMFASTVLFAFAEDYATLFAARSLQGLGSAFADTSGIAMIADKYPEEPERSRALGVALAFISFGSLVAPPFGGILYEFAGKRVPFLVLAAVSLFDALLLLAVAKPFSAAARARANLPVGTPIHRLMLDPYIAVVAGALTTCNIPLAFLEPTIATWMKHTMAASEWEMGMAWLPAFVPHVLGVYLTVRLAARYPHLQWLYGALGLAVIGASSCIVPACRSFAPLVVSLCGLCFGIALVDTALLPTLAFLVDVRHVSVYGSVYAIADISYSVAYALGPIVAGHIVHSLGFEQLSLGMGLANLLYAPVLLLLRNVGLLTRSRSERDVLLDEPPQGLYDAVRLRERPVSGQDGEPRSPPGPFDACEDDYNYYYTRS
Assay: Displacement of (-)-[3H]vesamicol from human VAChT expressed in rat PC12 cell membrane after 20 hrs

Row | Structure (SMILES) | Ki [nM]
1 | Cn1cccc1C(=O)C1CCN([C@@H]2Cc3cccc(N)c3C[C@H]2O)CC1 | 2310
2 | Cn1cccc1C(=O)C1CCN([C@@H]2Cc3c(N)cccc3C[C@H]2O)CC1 | 39
3 | O=C(c1ncccc1OCCF)C1CCN([C@@H]2Cc3ccccc3C[C@H]2O)CC1 | 76
4 | O=C(c1ccc(OCCF)nc1)C1CCN([C@@H]2Cc3ccccc3C[C@H]2O)CC1 | 38
5 | CNc1ccc(C(=O)C2CCN([C@@H]3Cc4ccccc4C[C@H]3O)CC2)cc1 | 3
6 | CN(C)c1ccc(C(=O)C2CCN([C@@H]3Cc4ccccc4C[C@H]3O)CC2)cc1 | 0.93
7 | O=C(c1cccnc1F)C1CCN([C@@H]2Cc3ccccc3C[C@H]2O)CC1 | 13
8 | O=C(c1ccc(F)nc1)C1CCN([C@@H]2Cc3ccccc3C[C@H]2O)CC1 | 26
9 | Cn1c(C(=O)C2CCN([C@@H]3Cc4ccccc4C[C@H]3O)CC2)cccc1=O | 182
10 | Cn1ccc(C(=O)C2CCN([C@@H]3Cc4ccccc4C[C@H]3O)CC2)cc1=O | 66
11 | O=C(c1cncc(F)c1)C1CCN([C@@H]2Cc3ccccc3C[C@H]2O)CC1 | 10
12 | COc1cccnc1C(=O)C1CCN([C@@H]2Cc3ccccc3C[C@H]2O)CC1 | 121
13 | O=C(c1cccnc1)C1CCN([C@@H]2Cc3ccccc3C[C@H]2O)CC1 | 24
14 | Cn1ccc(C(=O)C2CCN([C@@H]3Cc4ccccc4C[C@H]3O)CC2)c1 | 27
15 | Cn1cccc1C(=O)C1CCN([C@@H]2Cc3ccccc3C[C@H]2O)CC1 | 18
